In patent US7132524B2, “Plant brassinolide responsive genes and use thereof” (National Agriculture and Bio-oriented Research Organization, priority 2002, dated 2006):
“Also recorded” adds a separate entry of the source.

B1: OsBLE1: OsBLE1 cDNA (SEQ ID NO: 1) inserted in antisense direction in binary vector pIG121-Hm under CaMV 35S promoter (nucleic acid, listed as Oryza sativa)
DNA: AATTCGGCACGAGCGGCGGCGAGAGGAGCGGCGGCGATGGGCGGCGGCGGGCACGGCGGCGGCACGACGTACAAGGGGTACACCATCCCCCACAACAAGCGCTGGCACACCGTCGCCGGCAAGGGCCTCTGCGCCGTCATGTGGTTTTGGGTTTTCTACAGGGCTAAGCAGGACGGTGCTGTTCTCTTGGGCATGCGTCATCCTTGGGATGGTCATGATGATCACTCACATGGTCATGGGCATGAGCATGAGGGATCATCATCAACATCGTCGTCTCACTAAATCAACTGCTTCTTGGCGGCTGAGGGAGACTCGCTGCTTTGGTTGTCGCGATGAAATCCTCGAAGATAATAAAGTTTCACACTATTAATTTTATTAAGATGGGTTCATGTTGTTGGCAACTGTTTAAGGCAAACTGGTTATGTATTTTGCTTTTGAGATAGCCTCCCTCGATGGAAAACCCATGTATGTTGTTGCTTATTAGGCTGTGGACATCCTTTTGGATGTAGAGGCTGGGTTTTTAATCCATTATCTAAAAAAATGTTGTTGCTTCTTCCGATCAAAAAAAAAAAAAAAAAAAAAAAAAAAAAAAAAAAAA
modifications: antisense orientation in binary vector under 35S promoter; cDNA

Key:
OsBLE1 and OsBLE2 genes = experiment: Northern blotting analysis of OsBLE1 and OsBLE2 expression after plant hormone treatment; type: in vivo, Rice (Nipponbare); details: for expression of OsBLE1 and OsBLE2 following hormone treatment: leaf sheath and base of leaf blades, FIG. 2B-2C
Method: Rice (Nipponbare) was grown at 25° C. and 75% humidity with a 12-hrs day and 12-hrs night under white fluorescent light (about 600 μmol·m^−2sec^−1). Commercially available, high quality brassinolide (BL), gibberellin (GA), and indole-3-acetic acid (IAA) were used for the present invention. The method of Chomczynski and Sacchi (Chomczynski P., Sacchi N., Ana. Biochem., 162: 156–159, 1987) was used to extract RNA for RNA blotting analysis. An mRNA purification kit oligotex-dT-30 (Takara), was used to prepare mRNA for micro-array analysis. After tissue samples were quickly frozen in liquid nitrogen, about 0.5 g of the frozen tissue was ground into powder in a mortar and pestle. Total RNA was prepared by the method of Chomczynski and Sacchi (Chomczynski P., Sacchi N., Anal. Biochem., 162: 156–159, 1987). Then, mRNA for microarray analysis was purified from the total RNA using oligotexdT kit (Takara). For Northern blot analysis, 20 μg of the total RNA were electrophoresed in a 1.2% agarose gel containing 6% formaldehyde and then transferred to a Hybond™-N^+ nylon membrane. In order to ensure equivalent amount of RNAs were electrophoresed for Northern blotting, the present inventors stained gels with ethidium bromide to compare rRNA quantity. Hybridization was carried out at 42° C. overnight using ULTRAhyb™ (Ambion), and the membrane was washed with 2×SSC and 0.1% SDS at 42° C. for 5 min, and then with 0.1×SSC and 0.1% SDS at 68° C. for 15 min. Nylon membrane was exposed to X-ray film (Kodak). The expression patterns of the 12 genes were analyzed by Northern blotting. The present inventors then found two genes whose expression occurs one to six hours after brassinolide treatment and was increased in the leaf sheath and the base of leaf blades by auxin and brassinolide treatment (FIGS. 2A–2C). The present inventors named these two genes OsBLE1 and OsBLE2.

[1] = system: 1265 rice genes (EST clones); experiment: cDNA microarray analysis of rice seedling leaf blade base after brassinolide treatment; type: in vivo, Rice (Nipponbare); details: base of leaf blades of rice seedling, 1 μM brassinolide, 48 hours; depending on the concentration
Method: Rice (Nipponbare) was grown at 25° C. and 75% humidity with a 12-hrs day and 12-hrs night under white fluorescent light (about 600 μmol·m^−2sec^−1). Commercially available, high quality brassinolide (BL), gibberellin (GA), and indole-3-acetic acid (IAA) were used for the present invention. The method of Chomczynski and Sacchi (Chomczynski P., Sacchi N., Ana. Biochem., 162: 156–159, 1987) was used to extract RNA for RNA blotting analysis. An mRNA purification kit oligotex-dT-30 (Takara), was used to prepare mRNA for micro-array analysis. A cDNA microarray containing 1265 EST clones was used. RNA was isolated from the base of leaf blades treated with 1 μM brassinolide for 48 hours. Reverse transcription reaction was performed for two hours at 42° C. using 1 μg of mRNA in the presence of 50 μM Cy5 dCTP (Amersham Pharmacia), and then stopped. After heated at 94° C. for 3 min, the resulting mixture was treated with NaOH at 37° C. for 15 min to digest the RNA, and then cDNA was recovered. Fluorescently labeled cDNA probe was purified using a QIA quick PCR purification kit (Qiagen). […] Data were analyzed according to Array Vision (Imaging Research). Total RNA was extracted from the base of leaf blades of rice (Nipponbare) seedling treated with 1 μM brassinolide, and the RNA was analyzed using cDNA microarrays containing 1265 rice genes. […]

Nipponbare rice cultivar = experiment: Growth of rice transformed with antisense cDNA under CaMV 35S promoter; type: in vivo; details: antisense direction in pIG121-Hm, Agrobacterium EHA101, FIGS. 5B-5C
Source text: Two different cDNAs were inserted into an expression vector in the antisense direction. The resulting vector was then introduced into Agrobacterium (EHA101). The resulting Agrobacterium was used to transform Nipponbare rice cultivar by the ultrahigh-speed transformation method for monocotyledons (Japanese Patent No. 3141084).
Both of cDNAs of OsBLE1 and OsBLE2 were modified to have SalI restriction site at their 5′ end and to have XbaI restriction sites at their 3′ ends. The modified cDNAs were then digested with XbaI and SalI and inserted into a binary vector pIG121-Hm (Ohta S., Mita S., Hattori T., Nakamura K., Plant Cell Physiol., 31: 805–813, 1990) at XbaI (5′ end) and SalI (3′ end) sites (in the antisense direction) under the control of cauliflower mosaic virus 35S promoter. The recombinant binary vectors were introduced into Agrobacterium EHA101, and the resulting Agrobacterium was introduced into Nipponbare rice cultivar by ultrahigh-speed transformation method for monocotyledons. […] Therefore, the present inventors have succeeded in dwarfing a transformed plant in which expression of a gene that is induced by addition of a plant hormone, brassinolide, is regulated.

Molecule | expression of OsBLE1 and OsBLE2 following hormone treatment (OsBLE1 and OsBLE2 genes) | expression level of the 12 different genes [1] | time after treatment at which expression of OsBLE1 and OsBLE2 occurs / is induced (OsBLE1 and OsBLE2 genes; FIG. 2A) | growth of stem and leaf of transformed rice compared to controls containing the vector alone (Nipponbare rice cultivar)
O=C(O)Cc1c[nH]c2ccccc12 [IAA, indole-3-acetic acid] | increased | – | – | –
C=C1C[C@]23C[C@@]1(O)CC[C@H]2[C@@]12C=C[C@H](O)[C@@](C)(C(=O)O1)[C@H]2[C@@H]3C(=O)O [GA3, gibberellin] | increased | – | – | –
CC(C)[C@H](C)[C@@H](O)[C@H](O)[C@@H](C)[C@H]1CC[C@H]2[C@@H]3COC(=O)[C@H]4C[C@H](O)[C@H](O)C[C@]4(C)[C@H]3CC[C@]12C [brassinolide] | increased | markedly increased | two to six; also recorded: one to six | –
OsBLE2: OsBLE2 cDNA (SEQ ID NO: 3) inserted in antisense direction in binary vector pIG121-Hm under CaMV 35S promoter | – | – | – | suppressed growth of stem and leaf
B1 | – | – | – | suppressed growth of stem and leaf
